In paper PMC7780349 (Cell, 2020):
In brackets after ≈: the same amount, converted by molar mass. Where two headings read alike, the source gives them in different places.

Tests used:
[1] = test system: B. subtilis dfrA and folC CRISPRi knockdown mutants; format: cell-based; conditions: growth (OD600) after 14 h relative to DMSO
[2] = test system: mammalian cells (HEK293, HK-2, HLF, PBMC)
[3] = Mouse liver microsomal stability; format: in vitro ADME; conditions: 2 μM, 0.5 mg/mL microsomes, NADPH and UDPGA, 1 hour; compared to verapamil
E. coli lptD4213 [4] = experiment: Membrane potential and permeability assay; conditions: E. coli lptD4213, 15 min treatment
[5] = test system: N. gonorrhoeae ATCC 700825; experiment: Neisseria gonorrhea vaginal infection model; format: in vivo, BALB/c mice; conditions: 10 mg/kg i.v. at 2 and 14 h post-infection, CFUs at 26 h; p < 0.05 vs vehicle
N. gonorrhoeae = experiment: Minimum inhibitory concentration assay; conditions: bacterial culture
[6] = Maximal tolerated dose in mice; format: in vivo; conditions: intravenously
PBMC = experiment: Mammalian cell cytotoxicity; format: cell-based; conditions: 72 hours
E. coli lptD4213 [7] = experiment: Minimum inhibitory concentration assay; conditions: for MIC: concentration printed as 1× MIC
A. baumannii AB17978 [8] = experiment: Minimum inhibitory concentration assay
B. subtilis 168 = experiment: Minimum inhibitory concentration assay; format: cell-based
S. aureus MRSA USA300 [9] = experiment: Minimum inhibitory concentration assay
[10] = target: E. coli dihydrofolate reductase (FolA) (Escherichia coli, UniProt P0ABQ4); experiment: Dihydrofolate reductase activity assay; format: biochemical
E. coli dihydrofolate reductase (FolA), sequence (P0ABQ4 whole entry): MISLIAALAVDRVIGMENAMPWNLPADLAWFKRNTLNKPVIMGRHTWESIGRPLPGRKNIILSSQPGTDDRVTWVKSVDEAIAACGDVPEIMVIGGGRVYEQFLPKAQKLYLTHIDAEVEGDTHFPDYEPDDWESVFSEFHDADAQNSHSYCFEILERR

[11] = test system: S. aureus MRSA USA300 persister cells; experiment: S. aureus MRSA persister cell assay; format: cell-based, Staphylococcus aureus; conditions: 2 h treatment
E. coli NCM3722 = experiment: Minimum inhibitory concentration assay; format: cell-based; conditions: Escherichia coli
E. coli lptD4213 ΔthyA = experiment: Growth of wild-type and ΔthyA cells with thymine; format: cell-based; conditions: excess thymine in the medium
G. mellonella = experiment: Galleria mellonella host toxicity; format: in vivo; conditions: injection at four times the MIC toward A. baumannii
A. baumannii AB17978 [12] = experiment: Galleria mellonella killing assay; format: in vivo; conditions: lethal dose of A. baumannii AB17978; 67 μg/larva; p < 0.001
MRSA USA300 = experiment: Isolation of resistant mutants by plating on drug agar; format: cell-based, Staphylococcus aureus; conditions: ~10^8 CFU on agar with 25 μg/mL SCH-79797 (4X MIC)
B. subtilis = experiment: Isolation of resistant mutants by plating; format: cell-based; conditions: ~10^8 CFUs
HEK293 = format: cell-based
[13] = target: dihydrofolate reductase (FolA) (Escherichia coli, UniProt P0ABQ4); experiment: Thermal proteome profiling; format: binding; conditions: E. coli lptD4213 intact cells and cell lysates
dihydrofolate reductase (FolA), sequence (P0ABQ4 whole entry): as above

E. coli lptD4213 [14] = experiment: Colony forming units assay; format: cell-based; conditions: E. coli lptD4213, 3-h treatment, 2× MIC
HK-2 = format: cell-based
P. aeruginosa = experiment: Minimum inhibitory concentration assay
A. baumannii AB17978 [15] = experiment: Serial passaging assay to evolve resistance; format: cell-based, Acinetobacter baumannii
[16] = test system: folate metabolite pools in E. coli NCM3722; experiment: Metabolomics of folate metabolite pools; format: cell-based; conditions: 13.9 μg/mL (1× MIC), 15 min
E. cloacae = experiment: Minimum inhibitory concentration assay
S. aureus MRSA USA300 [17] = experiment: Serial passaging assay to evolve resistance; format: cell-based, Staphylococcus aureus; conditions: S. aureus MRSA USA300, 25 days, sub-lethal concentrations
HLF = format: cell-based
[18] = animals; ref Gobbetti et al., 2012; Strande et al., 2007; cited from earlier work

Nc1nc(N)c2c(ccc3c2ccn3Cc2ccc(-c3ccccc3)cc2)n1 [IRS-16]
sensitivity of dfrA and folC CRISPRi knockdowns [1]: hypersensitive | increase of therapeutic window relative to SCH-79797 [2]: > 100 fold | stability in mouse liver microsomes [3]: extremely stable | membrane potential and permeability (DiOC2(3) and TO-PRO-3 staining) (E. coli lptD4213 [4]): disrupted membrane permeability and polarity | vaginal load of N. gonorrhoeae (CFU) [5]: significantly reduced the vaginal load | MIC (N. gonorrhoeae): 0.03 µg/mL (≈ 0.0821 µM) | adverse effects (male CD-1 mice, single i.v. dose 15 mg/kg): no adverse effects | time at concentrations above the N. gonorrhoeae MIC (mice, 15 mg/kg i.v., MIC 0.03 μg/mL): ~48 h | half-life (mouse, in vivo, iv, 15 mg/kg): 15.8 h | maximal tolerated dose (MTD) [6]: 15 mg/kg | MIC against PBMC (PBMC): greater than the maximal drug concentrations tested | MIC (E. coli lptD4213 [7]): 0.02 µg/mL (≈ 0.0547 µM)

CC(C)c1ccccc1 [isopropylbenzene]
sensitivity of dfrA and folC CRISPRi knockdowns [1]: no effect | membrane potential and permeability (DiOC2(3) and TO-PRO-3 staining) (E. coli lptD4213 [4]): disrupts both membrane polarity and permeability

Nc1nc(N)c2c(ccc3[nH]ccc32)n1 [IRS-10]
potency compared to the parent molecule SCH-79797 (A. baumannii AB17978 [8]): decreased the potency | sensitivity of dfrA and folC CRISPRi knockdowns [1]: maintains the ability to inhibit folate metabolism | membrane potential and permeability (DiOC2(3) and TO-PRO-3 staining) (E. coli lptD4213 [4]): does not disrupt membrane polarity or permeability | potency compared to the parent molecule SCH-79797 (B. subtilis 168; B. subtilis 168): decreased the potency | potency compared to the parent molecule SCH-79797 (S. aureus MRSA USA300 [9]; MRSA USA300): decreased the potency | IC50 ([10]; read-out: IC50 against FolA, 60 μM NADPH and 100 μM DHF, Hill fit): 0.065 ± 0.019 µM | potency compared to the parent molecule SCH-79797 (E. coli lptD4213 [7]): increased the potency | MIC (E. coli lptD4213 [7]): 0.4 µg/mL (≈ 2.01 µM)

daptomycin
viability of persister cells (CFU) [11]: did not reduce the number of CFUs

CO[C@H]1/C=C/O[C@@]2(C)Oc3c(C)c(O)c4c(O)c(c(/C=N/N5CCN(C)CC5)c(O)c4c3C2=O)NC(=O)/C(C)=C\C=C\[C@H](C)[C@H](O)[C@@H](C)[C@@H](O)[C@@H](C)[C@H](OC(C)=O)[C@@H]1C [rifampicin]
membrane potential and permeability (DiOC2(3) and TO-PRO-3 staining) (E. coli lptD4213 [4]): do not shift DiOC2(3) or TO-PRO-3 staining

COc1cc(Cc2cnc(N)nc2N)cc(OC)c1OC [trimethoprim]
MIC (E. coli NCM3722): 0.15 µg/mL (≈ 0.517 µM) | sensitivity of dfrA and folC CRISPRi knockdowns [1]: hypersensitive | membrane potential and permeability (DiOC2(3) and TO-PRO-3 staining) (E. coli lptD4213 [4]): no significant changes in DiOC2(3) and TO-PRO-3 staining | sensitivity of ΔthyA versus wild-type cells (E. coli lptD4213 ΔthyA): led to trimethoprim resistance

CC(C)c1ccc(Cn2ccc3c4c(N)nc(NC5CC5)nc4ccc32)cc1 [SCH-79797, N3-cyclopropyl-7-[[4-(1-methylethyl)phenyl]methyl]-7H-pyrrolo[3,2-f]quinazoline-1,3-diamine]
host toxicity (G. mellonella): did not result in higher host toxicity than the solvent-only control | MIC (E. coli NCM3722): 13.9 µg/mL (≈ 37.4 µM) | survival of infected larvae (A. baumannii AB17978 [12]): significantly prolonged the survival | isolation of resistant mutants on plating (MRSA USA300): unable to isolate stable SCH-79797-resistant mutants | sensitivity of dfrA and folC CRISPRi knockdowns [1]: sensitized | isolation of resistant mutants on plating (B. subtilis): unable to isolate SCH-79797-resistant mutants | growth inhibition of mammalian cells relative to antibacterial dose (HEK293): at doses comparable to the doses needed to kill bacteria | thermal stability of dihydrofolate reductase (FolA) [13]: significantly shifted the thermal stability | viability of persister cells (CFU) [11]: robustly killed these persister cells | bactericidal activity (CFU) (E. coli lptD4213 [14]): potent and rapid bactericidal activity | growth inhibition of mammalian cells relative to antibacterial dose (HK-2): at doses comparable to the doses needed to kill bacteria | MIC (P. aeruginosa): greater the maximal drug concentrations tested | membrane potential and permeability (DiOC2(3) and TO-PRO-3 staining) (E. coli lptD4213 [4]): significant defects in both membrane polarization and permeability | MIC (B. subtilis 168; Bacillus subtilis, 168): 3.1 µg/mL (≈ 8.34 µM) | MIC (S. aureus MRSA USA300 [9]; Staphylococcus aureus, MRSA|USA300): 6.3 µg/mL (≈ 17 µM) | resistance on serial passaging (A. baumannii AB17978 [15]): resistance remained constant | sensitivity of ΔthyA versus wild-type cells (E. coli lptD4213 ΔthyA): no change in sensitivity | rise of 7,8-dihydrofolate (DHF) level compared to untreated cells [16]: ~ 10 fold | MIC (E. cloacae): greater the maximal drug concentrations tested | resistance on serial passaging (S. aureus MRSA USA300 [17]): no SCH-79797-resistant mutants emerged | growth inhibition of mammalian cells relative to antibacterial dose (HLF): at doses comparable to the doses needed to kill bacteria | IC50 [10]: 8.6 ± 3 µM | safely tolerated dose [18]: at least 5 mg/kg

N#CC(C#N)=NNc1cccc(Cl)c1 [CCCP]
membrane potential and permeability (DiOC2(3) and TO-PRO-3 staining) (E. coli lptD4213 [4]): expected shifts in both DiOC2(3) and TO-PRO-3 staining

nisin
membrane potential and permeability (DiOC2(3) and TO-PRO-3 staining) (E. coli lptD4213 [4]): expected shifts in both DiOC2(3) and TO-PRO-3 staining | resistance on serial passaging (S. aureus MRSA USA300 [17]): resistance gradually increased

polymyxin B
membrane potential and permeability (DiOC2(3) and TO-PRO-3 staining) (E. coli lptD4213 [4]): expected shifts in both DiOC2(3) and TO-PRO-3 staining

CO[C@@H]1[C@@H](OC(N)=O)[C@@H](O)[C@H](Oc2ccc3c(O)c(NC(=O)c4ccc(O)c(CC=C(C)C)c4)c(=O)oc3c2C)OC1(C)C [novobiocin]
membrane potential and permeability (DiOC2(3) and TO-PRO-3 staining) (E. coli lptD4213 [4]): do not shift DiOC2(3) or TO-PRO-3 staining | resistance on serial passaging (S. aureus MRSA USA300 [17]): resistance gradually increased
